According to patent publication US20210392889A1, “COMPOSITIONS COMPRISING PYRIDINE CARBOXYLATE HERBICIDES WITH PDS INHIBITOR HERBICIDES” (Corteva Agriscience LLC, priority 2018, published 2021):

Experiments:
spring wheat (TRZAS) = assay: Greenhouse postemergence phytotoxicity on crop, visual injury after 20-22 d; format: in vivo, Triticum aestivum
Excerpt: (§1) Seeds of the desired test plant species were planted in a 90:10% v/v (volume/volume) mixture of PRO-MIX® BX (Premier Tech Horticulture, Quakertown, Pa., USA) and PROFILE® GREENS GRADE™ (Profile Products LLC, Buffalo Grove, Ill., USA) planting mixture, which typically has a pH of 5.2 to 6.2 and an organic matter content of at least 50 percent, in plastic pots with a surface area of 103.2 square centimeters (cm^2). In some aspects, to ensure good germination and healthy plants, a fungicide treatment and/or other chemical or physical treatment was applied. The plants were grown for 7-36 days (d) in a greenhouse with an approximate 14-hour (h) photoperiod which was maintained at about 23° C. during the day and 22° C. during the night. Nutrients and water were added on a regular basis and supplemental lighting was provided with overhead metal halide 1000-Watt lamps as necessary. The plants were employed for testing when they reached the second or third true leaf stage.
(§2) Emulsifiable concentrates of each of each pyridine carboxylate herbicide (Compound A or Compound B) were prepared at 100 grams acid equivalent per liter (g ae/L). The emulsifiable concentrates also included a safener, cloquintocet-mexyl, at 120 grams active ingredient per liter (g ai/L). An aliquot of each emulsifiable concentrate was placed in a 25 mL glass vial and diluted with an aqueous mixture of 1.25% (v/v) ACTIROB® B esterified rapeseed oil (Bayer Crop Science, Research Triangle Park, N.C., USA) or MSO® Concentrate with LECI-TECH® methylated soybean oil (Loveland Products, Loveland, Colo., USA) to obtain concentrated stock solutions at the highest application rate for each herbicide, based upon a 12 milliliter (mL) application volume at a rate of 187 liters per hectare (L/ha). The concentrated stock solutions were further diluted with an aqueous mixture of 1.25% v/v ACTIROB® B or MSO® Concentrate with LECI-TECH® to obtain stock solutions at reduced application rates for each herbicide. Spray solutions of the herbicide combinations (Compound A or Compound B plus PDS inhibitor herbicide) were prepared by adding weighed amounts or aliquots of the PDS inhibitor herbicide to the stock solutions of Compound A or Compound B to form 12-mL spray solutions in two- or three-way combinations.
(§3) The spray solutions were applied to the plant material with an overhead Mandel track sprayer equipped with 8002E nozzles calibrated to deliver 187 L/ha over an application area of 0.503 square meters (m^2) at a spray height of 18 inches ([…] centimeters (cm)) above the average plant canopy. Control plants were sprayed in the same manner with the solvent blank. All pyridine carboxylate herbicide (component a) application rates are given as “g ae/ha” and all PDS inhibitor herbicide (component b) application rates are given as “g ai/ha.”
(§4) The treated plants and control plants were placed in a greenhouse as described above and watered by sub-irrigation to prevent wash-off of the test compounds. After 20-22 d, the condition of the test plants as compared with that of the control plants was determined visually and scored on a scale of 0 to 100 percent where 0 corresponds to no injury and 100 corresponds to complete kill.

spring barley (HORVS) = assay: as above; format: in vivo, Hordeum vulgare
Excerpt: as §1, §2, §3, §4

[1] = system: Russian thistle (SASKR, Salsola kali); assay: Greenhouse postemergence herbicidal effect, visual injury after 20-22 d; format: in vivo
Excerpt: as §1, §2, §3, §4

[2] = system: spring rape (BRSNN, Brassica napus); assay: as above; format: in vivo
Excerpt: as §1, §2, §3, §4

[3] = system: wild chamomile (MATCH, Matricaria chamomilla); assay: as above; format: in vivo
Excerpt: as §1, §2, §3, §4

[4] = system: kochia (KCHSC, Kochia scoparia); assay: as above; format: in vivo
Excerpt: as §1, §2, §3, §4

[5] = system: wild buckwheat (POLCO, Polygonum convolvulus); assay: as above; format: in vivo
Excerpt: as §1, §2, §3, §4

[6] = system: wild mustard (SINAR, Sinapis arvensis); assay: as above; format: in vivo
Excerpt: as §1, §2, §3, §4

[7] = system: common lambsquarters (CHEAL, Chenopodium album L.); assay: as above; format: in vivo
Excerpt: as §1, §2, §3, §4

[8] = system: Italian ryegrass (LOLMU, Lolium multiflorum.); assay: as above; format: in vivo; conditions: 12.5 g/ha, Table 4
Excerpt: as §1, §2, §3, §4

[9] = system: large crabgrass (DIGSA, Digitaria sanguinalis); assay: as above; format: in vivo; conditions: 12.5 g/ha, Table 4
Excerpt: as §1, §2, §3, §4

[10] = system: velvetleaf (ABUTH, Abutilon theophrasti); assay: as above; format: in vivo; conditions: 12.5 g/ha, Table 4
Excerpt: as §1, §2, §3, §4

[11] = system: wild pansy (VIOTR, Viola tricolor); assay: as above; format: in vivo; conditions: 12.5 g/ha, Table 4
Excerpt: as §1, §2, §3, §4

[12] = system: broad-leaf dock (RUMOB, Rumex obtusifolius); assay: as above; format: in vivo; conditions: 12.5 g/ha, Table 4
Excerpt: as §1, §2, §3, §4

[13] = system: barnyardgrass (ECHCG, Echinochloa crus-galli); assay: as above; format: in vivo; conditions: 12.5 g/ha, Table 4
Excerpt: as §1, §2, §3, §4

[14] = system: soybean (GLXMA=Glycine max); assay: as above; format: in vivo; conditions: 12.5 g/ha, Table 4
Excerpt: as §1, §2, §3, §4

[15] = system: ivyleaf morningglory (IPOHE, Ipomoea hederacea); assay: as above; format: in vivo; conditions: 12.5 g/ha, Table 4
Excerpt: as §1, §2, §3, §4

[16] = system: Canada thistle (CIRAR, Cirsium arvense); assay: as above; format: in vivo
Excerpt: as §1, §2, §3, §4

[17] = system: common rice (ORYSA, Oryza sativa); assay: as above; format: in vivo; conditions: 12.5 g/ha, Table 4
Excerpt: as §1, §2, §3, §4

[18] = system: giant foxtail (SETFA, Setaria faberi); assay: as above; format: in vivo; conditions: 12.5 g/ha, Table 4
Excerpt: as §1, §2, §3, §4

[19] = system: pigweed (AMARE, Amaranthus retroflexus); assay: as above; format: in vivo
Excerpt: as §1, §2, §3, §4

[20] = system: winter rape (BRSNW, Brassica napus); assay: as above; format: in vivo; conditions: 60 g/ha, Table 1
Excerpt: as §1, §2, §3, §4

For `CCC(Oc1ccc(F)c(C(F)(F)F)c1)C(=O)NCc1ccccc1` (stereo not shown) [Beflubutamid, 2-[4-fluoro-3-(trifluoromethyl)phenoxy]-N-(phenylmethyl)butanamide, reference compound], the “visual injury Obs” value (spring wheat (TRZAS); 42.5 g/ha, Table 2) was 0%, the “visual injury Obs” value (spring barley (HORVS); 42.5 g/ha, Table 2) was 18% and the “visual injury Obs” value ([1]; 42.5 g/ha, Table 2) was 0%. The “visual injury Obs” value ([2]; 42.5 g/ha, Table 2) was 25%, the “visual injury Obs” value ([3]; 42.5 g/ha, Table 2) was 0% and the “visual injury Obs” value ([4]; 42.5 g/ha, Table 2) was 0%. For the same compound, the “visual injury Obs” value ([5]; 42.5 g/ha, Table 2) was 0%, the “visual injury Obs” value ([6]; 42.5 g/ha, Table 2) was 5% and the “visual injury Obs” value ([7]; 42.5 g/ha, Table 2) was 0%.

In the case of `O=C(Nc1ccc(F)cc1)c1cccc(Oc2cccc(C(F)(F)F)c2)n1` [Picolinafen, N-(4-fluorophenyl)-6-[3-(trifluoromethyl)phenoxy]-2-pyridinecarboxamide, reference compound], the “visual injury Obs” value [8] is reported as 0%, the “visual injury Obs” value [9] is reported as 50% and the “visual injury Obs” value [10] is reported as 15%. For the same compound, the “visual injury Obs” value ([2]; 12.5 g/ha, Table 4) was 28%, the “visual injury Obs” value [11] was 0% and the “visual injury Obs” value [12] was 0%. For the same compound, the “visual injury Obs” value [13] was 0%, the “visual injury Obs” value ([7]; 12.5 g/ha, Table 4) was 20% and the “visual injury Obs” value [14] was 20%. The “visual injury Obs” value [15] was 5%, the “visual injury Obs” value ([16]; 12.5 g/ha, Table 4) was 5% and the “visual injury Obs” value [17] was 5%. For the same compound, the “visual injury Obs” value [18] was 0%.

For `Cn1cc(-c2ccccc2)c(=O)c(-c2cccc(C(F)(F)F)c2)c1` [Fluridone, 1-methyl-3-phenyl-5-[3-(trifluoromethyl)-phenyl]-4(1H)-pyridinone, reference compound], the “visual injury Obs” value (spring wheat (TRZAS); 280 g/ha, Table 3) was 0%, the “visual injury Obs” value (spring barley (HORVS); 280 g/ha, Table 3) was 0% and the “visual injury Obs” value ([1]; 280 g/ha, Table 3) was 0%. For the same compound, the “visual injury Obs” value ([2]; 280 g/ha, Table 3) was 18%, the “visual injury Obs” value ([3]; 280 g/ha, Table 3) was 5% and the “visual injury Obs” value ([19]; 280 g/ha, Table 3) was 23%. The “visual injury Obs” value ([5]; 280 g/ha, Table 3) was 13%, the “visual injury Obs” value ([6]; 280 g/ha, Table 3) was 45% and the “visual injury Obs” value ([7]; 280 g/ha, Table 3) was 13%. The “visual injury Obs” value ([16]; 280 g/ha, Table 3) was 18%.

Work on `O=C(Nc1ccc(F)cc1F)c1cccnc1Oc1cccc(C(F)(F)F)c1` [Diflufenican, N-(2,4-difluorophenyl)-2-[3-(trifluoromethyl)phenoxy]-3-pyridinecarboxamide, reference compound] yielded a visual injury (spring wheat (TRZAS); 60 g/ha, Table 1) of 0%, a visual injury (spring barley (HORVS); 60 g/ha, Table 1) of 13% and a visual injury ([1]; 60 g/ha, Table 1) of 18%. The visual injury [20] was 18%, the visual injury ([3]; 60 g/ha, Table 1) was 0% and the visual injury ([4]; 60 g/ha, Table 1) was 13%. It also gave a visual injury ([19]; 60 g/ha, Table 1) of 20%, a visual injury ([5]; 60 g/ha, Table 1) of 10% and a visual injury ([6]; 60 g/ha, Table 1) of 23%. The visual injury ([7]; 60 g/ha, Table 1) was 13% and the visual injury ([16]; 60 g/ha, Table 1) was 5%.
